# Data taken from paper PMC4532424, “The Novel Cyclophilin Inhibitor CPI-431-32 Concurrently Blocks HCV and HIV-1 Infections via a Similar Mechanism of Action” (PLoS ONE, 2015).
# Non-standard residues stand in square brackets, D forms with d. Residues, ends and D or L forms follow the SMILES beside them. NMeThr(4R-Me,4-(CH2)6NHAc) = CN[C@H](C(=O)O)[C@H](O)[C@H](C)CCCCCCNC(C)=O; NMeL = CN[C@@H](CC(C)C)C(=O)O; NMeV = CN[C@H](C(=O)O)C(C)C; dNMeA = CN[C@H](C)C(=O)O; Abu = CC[C@H](N)C(=O)O
# Assays:
# Human recombinant CypA = target: T1, Human recombinant CypA (Homo sapiens, UniProt P62937); assay: α-chymotrypsin-coupled CypA isomerase inhibition assay; format: biochemical; conditions: one representative experiment, mean ± SD; 10 nM CypA, 5°C
# T1 construct: purchased Atgen
# Procedure: Succinyl-AAPF-pNA peptide substrate (Sigma) was dissolved to 3.2 mM in dried LiCl/trifluoroethanol. […] All solutions were equilibrated, and reactions conducted at 5°C. Reactions were initiated by mixing 95 μL reaction mix with 5 μL peptide preloaded in multiple wells of 96-well plates and measuring OD405 nm in each well at 6-sec intervals for 6 min using a BMG Polarstar Galaxy plate reader. Data were fitted with Graphpad Prism 6.0 to obtain first-order rate constants.
# human T cells = conditions: cited from earlier work
# HCV JFH-1 = assay: HIV-1/HCV co-culture co-infection, HCV core ELISA; format: cell-based
# Procedure: (§1) CD4+ T-lymphocytes and Huh7.5.1 cells uninfected or infected for 3 h as described above were mixed in a single flask and HIV-1 and HCV replication monitored over a period of 3 weeks as described above.
# (§2) HIV-1 target cells—CD4+ T-lymphocytes—and HCV target cells—hepatoma cells—were placed in a single chamber (flask), exposed to both HIV-1 and HCV, and viral replication monitored over time by p24 capsid and core ELISAs, respectively.
# (§3) CD4+ T-lymphocytes (A) and Huh7.5.1 cells (B) (0.5 x 10^6 cells) (triplicates) were exposed to HIV-1 JR-CSF and HCV JFH-1. Drugs (2 μM) were added 3 h pre-viral exposure (top panels) or 3 days post-viral exposure (bottom panels). Viral replications were monitored by HIV-1 p24 and HCV core ELISAs. C. CD4+ T-lymphocytes (0.5 x 10^6 cells) (triplicates) were exposed to HIV-1 JR-CSF. Drugs were initially added 3 days post-viral exposure (2 μM) and then daily (0.5 μM). Viral replications were monitored by HIV-1 p24 and HCV core ELISAs. […] D. Model for the HIV-1/HCV co-culture system.
# HIV-1 JR-CSF [1] = assay: HIV-1/HCV co-culture co-infection, HIV-1 p24 ELISA; format: cell-based
# Procedure: as §1, §2, §3
# HIV-1 JR-CSF [2] = assay: Established HIV-1 infection of CD4+ T-lymphocytes, single versus daily drug addition, p24 ELISA; format: cell-based; conditions: 2 μM three days post-infection then daily 0.5 μM; after fifteen days
# Procedure: as §3
# [3] = system: HCV-mediated double-membrane vesicle (DMV) formation; assay: HCV NS3-NS5B-mediated double membrane vesicle (DMV) formation in T7/Huh7.5.1 cells, EM; format: cell-based, human; conditions: for DMV number: T7/Huh7.5.1 cells, pTMI (NS3-NS5B), DMSO control 365 +/- 18
# Procedure: HCV-mediated DMV formation studies were conducted as we described recently using the pTM1(NS3-NS5B) plasmid and the T7/Huh7.5.1 cells developed by the Tai lab.
# We then investigated the mechanism by which CPI-431-32 inhibits HCV replication. HCV is well known for its ability to reshape intracellular membranes to optimize RNA synthesis, especially by re-organizing the ER membrane close to the nucleus—the so-called membranous web (MW). […] We and others recently obtained evidence that the formation of DMVs highly depends on both CypA and HCV NS5A [60, 71, 72]. We thus asked whether CPI-431-32 inhibits HCV replication by preventing the creation of DMVs. To test this hypothesis, we took advantage of a T7 promoter driven JFH-1 NS3-NS5B DNA plasmid (pTM1(NS3-5B)) developed by the Tai lab that permits expression of NS3, NS4A, NS4B, NS5A and NS5B upon HCV polyprotein processing as well as viral RNA synthesis when transfected in T7 RNA polymerase expressing Huh7.5.1 cells (T7/Huh7.5.1 cells). Importantly, the expression of the HCV NS3-NS5B polyprotein suffices to create both the MV and DMVs independently of viral replication. All controls were presented previously. As we and others recently reported, NS3-5B expression mediates the formation of a significant number of DMVs in DMSO-treated cells (Fig 5).
# Fig 5 CPI-431-32 blocks HCV-mediated double-membrane vesicle (DMV) formation. T7 polymerase expressing Huh7.5.1 cells were transfected in triplicates with JFH-1 NS3-NS5B plasmid in the presence of DMSO or increasing concentrations of CPI-431-32 and analyzed by EM as well as by Image J and ITEM software for DMVs quantification as described previously. Illustrating EM images of DMVs are presented with an amplification of 25,000x. Data are representative of two independent experiments. TEXT PRINTED IN THE PICTURE: DMSO: DMV number: 0 (Cells: T7/Huh7.5.1; HCV Plasmids: –); DMV number: 365 +/- 18 (Cells: T7/Huh7.5.1; HCV Plasmids: pTMI (NS3-NS5B)) | CPI-431-32: DMV number: 1 +/- 0 (2 μM; Cells: T7/Huh7.5.1; HCV Plasmids: pTMI (NS3-NS5B)); DMV number: 8 +/- 2 (0.5 μM; Cells: T7/Huh7.5.1; HCV Plasmids: pTMI (NS3-NS5B)); DMV number: 61 +/- 6 (0.125 μM; Cells: T7/Huh7.5.1; HCV Plasmids: pTMI (NS3-NS5B)); DMV number: 312 +/- 45 (0.03125 μM; Cells: T7/Huh7.5.1; HCV Plasmids: pTMI (NS3-NS5B))
# [4] = drug treatments begun 3 h before virus addition
# [5] = single dose added 3 days post-infection
# T1 sequence (P62937 whole entry): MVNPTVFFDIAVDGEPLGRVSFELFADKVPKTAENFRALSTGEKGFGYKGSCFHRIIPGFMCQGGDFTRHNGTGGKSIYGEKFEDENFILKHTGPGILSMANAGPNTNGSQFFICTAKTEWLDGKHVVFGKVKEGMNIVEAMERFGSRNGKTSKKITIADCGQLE
compound,measurement,setting,value
"C/C=C/C[C@@H](C)[C@@H](O)[C@H]1C(=O)N[C@@H](CC)C(=O)N(C)[C@H](C)C(=O)N(CC)[C@@H](C(C)C)C(=O)N[C@@H](C(C)C)C(=O)N(C)[C@@H](CC(C)C)C(=O)N[C@@H](C)C(=O)N[C@H](C)C(=O)N(C)[C@@H](CC(C)C)C(=O)N(C)[C@@H](CC(C)C)C(=O)N(C)[C@@H](C(C)C)C(=O)N1C [ALV, Alisporivir]",IC50,Human recombinant CypA,2.8 ± 0.4 nM
same,Cellular toxicity (in words),human T cells,lack of cellular toxicity
same,Effect on HCV replication (in words),HCV JFH-1; [4],completely prevented
same,Effect on HCV replication (in words),HCV JFH-1; [5],immediately and gradually caused a decline in HCV levels
same,Effect on HIV-1 replication (in words),HIV-1 JR-CSF [1]; [4],totally prevented HIV-1 replication
same,Effect on HIV-1 replication (in words),HIV-1 JR-CSF [1]; [5],a small degree of replication occurred within the first 3 days of addition
"CC[C@@H]1NC(=O)[C@H]([C@H](O)[C@H](C)CCCCCCNC(C)=O)N(C)C(=O)[C@H](C(C)C)N(C)C(=O)[C@H](CC(C)C)N(C)C(=O)[C@H](CC(C)C)N(C)C(=O)[C@@H](C)NC(=O)[C@H](C)NC(=O)[C@H](CC(C)C)N(C)C(=O)[C@H](C(C)C)NC(=O)[C@H](CC(C)C)N(C)C(=O)[C@@H](C)N(C)C1=O [CPI-431-32] (cyclo(A[dA][NMeL][NMeL][NMeV][NMeThr(4R-Me,4-(CH2)6NHAc)][Abu][dNMeA][NMeL]V[NMeL]))",Effect on HIV-1 replication (in words),HIV-1 JR-CSF [2],almost totally repressed HIV-1 replication
same,IC50,Human recombinant CypA,1.8 ± 0.6 nM
same,Effect on HCV replication (in words),HCV JFH-1; [4],completely prevented
same,Effect on HCV replication (in words),HCV JFH-1; [5],immediately and gradually caused a decline in HCV levels
same,DMV number,[3]; 0.03125 μM,312 +/- 45
same,DMV number,[3]; 0.125 μM,61 +/- 6
same,DMV number,[3]; 0.5 μM,8 +/- 2
same,DMV number,[3]; 2 μM,1 +/- 0
same,NS3-NS5B-mediated formation of DMVs (in words),[3]; compared to DMSO control,profoundly decreased
same,Effect on HIV-1 replication (in words),HIV-1 JR-CSF [1]; [4],totally prevented HIV-1 replication
same,Effect on HIV-1 replication (in words),HIV-1 JR-CSF [1]; [5],halted HIV-1 replication
